Data published in PMC5224920, “Assessing the mechanism and therapeutic potential of modulators of the human Mediator complex-associated protein kinases” (eLife, 2016).

Tested on: 12 single or co-culture in vitro tissue models of primary cells
Assay: Culture/co-culture cell model panel, extracellular biomarkers (DiscoveRx); for CCL2/MCP-1: reference of the scale not given here; for CD141/Thrombomodulin: reference of the scale not given here; for CD142/Tissue Factor: reference of the scale not given here; for CD38: reference of the scale not given here; for CD40: reference of the scale not given here; for CD69: reference of the scale not given here; for CXCL8/IL-8: reference of the scale not given here; for CXCL9/MIG: reference of the scale not given here; for IL-1alpha: reference of the scale not given here; for M-CSF: reference of the scale not given here; for PBMC Cytotoxicity: reference of the scale not given here; for SRB: reference of the scale not given here; for sPGE2: reference of the scale not given here; for sTNF-alpha: reference of the scale not given here
Type: cell-based, human
[1] = HDF3CGF stimulated fibroblasts, 1.00E3 nM
[2] = HDF3CGF stimulated fibroblasts, 1.00E4 nM
[3] = HPNo Huvec+PBMC unstimulated, 1.00E0 nM
[4] = HPNo Huvec+PBMC unstimulated, 1.00E1 nM
[5] = HPNo Huvec+PBMC unstimulated, 1.00E2 nM
[6] = HPNo Huvec+PBMC unstimulated, 1.00E3 nM
[7] = HPNo Huvec+PBMC unstimulated, 1.00E4 nM

## CN1c2ccc(-c3cncc(Cl)c3N3CCC4(CC3)CNC(=O)O4)cc2CS1(=O)=O [CMPD2]
[1]
  EGFR: -0.052
  M-CSF: -0.096
  MMP-1: 0.008
  PAI-I: -0.00267
  Proliferation_72hr: -0.251
  SRB: 0.000361
  TIMP-1: -0.053
  TIMP-2: 0.124
[2]
  CCL2/MCP-1: -0.114
  CD54/ICAM-1: -0.054
  CD106/VCAM-1: 0.046
  CXCL8/IL-8: -0.128
  CXCL9/MIG: -0.076
  CXCL10/IP-10: 0.028
  CXCL11/I-TAC: -0.031
  Collagen I: 0.036
  Collagen III: 0.126
  EGFR: -0.055
  M-CSF: -0.106
  MMP-1: 0.00332
  PAI-I: -0.018
  Proliferation_72hr: -0.340
  SRB: -0.00651
  TIMP-1: -0.067
  TIMP-2: 0.106
[3]
  CCL2/MCP-1: 0.047
  CD38: 0.008
  CD40: -0.048
  CD106/VCAM-1: 0.122
  CD141/Thrombomodulin: 0.013
  CD142/Tissue Factor: 0.008
[4]
  CCL2/MCP-1: 0.017
  CD38: -0.016
  CD40: -0.068
  CD106/VCAM-1: 0.183
  CD141/Thrombomodulin: -0.006
  CD142/Tissue Factor: 0.035
[5]
  CCL2/MCP-1: 0.000304
  CD38: 0.014
  CD40: -0.055
  CD106/VCAM-1: 0.274
  CD141/Thrombomodulin: 0.005
  CD142/Tissue Factor: 0.003
[6]
  CCL2/MCP-1: 0.022
  CD38: -0.028
  CD40: -0.055
  CD106/VCAM-1: 0.205
  CD141/Thrombomodulin: 0.027
  CD142/Tissue Factor: -0.00853
[7]
  CCL2/MCP-1: 0.015
  CD38: -0.095
  CD40: -0.048
  CD106/VCAM-1: 0.147
  CD141/Thrombomodulin: 0.018
  CD142/Tissue Factor: -0.051
HPNo, 1.00E0 nM
  CD69: 0.011
  CXCL8/IL-8: 0.022
  CXCL9/MIG: 0.062
  M-CSF: 0.018
  SRB: -0.102
  sPGE2: 0.045
  sTNF-alpha: 0.140
HPNo, 1.00E1 nM
  CD69: -0.097
  CXCL8/IL-8: -0.006
  CXCL9/MIG: -0.00447
  M-CSF: -0.015
  SRB: -0.043
  sPGE2: 0.026
  sTNF-alpha: 0.045
HPNo, 1.00E2 nM
  CD69: 0.035
  CXCL8/IL-8: 0.008
  CXCL9/MIG: 0.020
  M-CSF: -0.038
  SRB: 0.011
  sPGE2: 0.045
  sTNF-alpha: 0.037
HPNo, 1.00E3 nM
  CD69: -0.007
  CXCL8/IL-8: 0.014
  CXCL9/MIG: -0.00342
  M-CSF: 0.051
  SRB: 0.00149
  sPGE2: 0.054
  sTNF-alpha: -0.000698
HPNo, 1.00E4 nM
  CD69: -0.024
  CXCL8/IL-8: 0.024
  CXCL9/MIG: -0.063
  M-CSF: -0.029
  SRB: -0.014
  sPGE2: 0.013
  sTNF-alpha: 0.230
LPS Huvec+PBMC, 1.00E0 nM
  CCL2/MCP-1: 0.007
  CD40: -0.057
  CD69: -0.008
  CD106/VCAM-1: 0.052
  CD141/Thrombomodulin: 0.041
  CD142/Tissue Factor: 0.093
  CXCL8/IL-8: -0.00258
  IL-1alpha: 0.057
  M-CSF: 0.019
  SRB: -0.024
  sPGE2: 0.070
  sTNF-alpha: 0.028
LPS Huvec+PBMC, 1.00E1 nM
  CCL2/MCP-1: -0.031
  CD40: -0.098
  CD69: -0.024
  CD106/VCAM-1: 0.019
  CD141/Thrombomodulin: 0.064
  CD142/Tissue Factor: 0.086
  CXCL8/IL-8: -0.035
  IL-1alpha: 0.041
  M-CSF: -0.003
  SRB: -0.065
  sPGE2: 0.126
  sTNF-alpha: 0.036
LPS Huvec+PBMC, 1.00E2 nM
  CCL2/MCP-1: -0.057
  CD40: -0.098
  CD69: 0.050
  CD106/VCAM-1: 0.052
  CD141/Thrombomodulin: 0.070
  CD142/Tissue Factor: 0.084
  CXCL8/IL-8: -0.122
  IL-1alpha: 0.033
  M-CSF: -0.006
  SRB: -0.068
  sPGE2: 0.155
  sTNF-alpha: 0.039
LPS Huvec+PBMC, 1.00E3 nM
  CCL2/MCP-1: -0.096
  CD40: -0.100
  CD69: 0.022
  CD106/VCAM-1: 0.055
  CD141/Thrombomodulin: 0.054
  CD142/Tissue Factor: 0.086
  CXCL8/IL-8: -0.148
  IL-1alpha: 0.00095
  M-CSF: -0.00124
  SRB: -0.066
  sPGE2: 0.173
  sTNF-alpha: 0.034
LPS Huvec+PBMC, 1.00E4 nM
  CCL2/MCP-1: -0.102
  CD40: -0.101
  CD69: 0.034
  CD106/VCAM-1: 0.035
  CD141/Thrombomodulin: 0.062
  CD142/Tissue Factor: 0.080
  CXCL8/IL-8: -0.154
  IL-1alpha: -0.070
  M-CSF: -0.021
  SRB: -0.070
  sPGE2: 0.182
  sTNF-alpha: -0.175
SAg, 1.00E0 nM
  CCL2/MCP-1: 0.032
  CD38: -0.023
  CD40: -0.085
  CD69: 0.033
  CXCL8/IL-8: 0.067
  CXCL9/MIG: -0.004
  PBMC Cytotoxicity: 0.038
  Proliferation: 0.024
  SRB: -0.013
SAg, 1.00E1 nM
  CCL2/MCP-1: -0.012
  CD38: -0.063
  CD40: -0.169
  CD69: 0.018
  CXCL8/IL-8: -0.038
  CXCL9/MIG: -0.018
  PBMC Cytotoxicity: 0.015
  Proliferation: 0.017
  SRB: -0.031
SAg, 1.00E2 nM
  CCL2/MCP-1: -0.066
  CD38: -0.040
  CD40: -0.131
  CD69: 0.026
  CXCL8/IL-8: -0.133
  CXCL9/MIG: -0.055
  PBMC Cytotoxicity: 0.00148
  Proliferation: 0.021
  SRB: -0.056
SAg, 1.00E3 nM
  CCL2/MCP-1: -0.072
  CD38: -0.069
  CD40: -0.122
  CD69: 0.050
  CXCL8/IL-8: -0.196
  CXCL9/MIG: -0.061
  PBMC Cytotoxicity: 0.00529
  Proliferation: 0.010
  SRB: -0.049
SAg, 1.00E4 nM
  CCL2/MCP-1: -0.111
  CD38: -0.058
  CD40: -0.144
  CD69: 0.006
  CXCL8/IL-8: -0.208
  CXCL9/MIG: -0.061
  PBMC Cytotoxicity: 0.00852
  Proliferation: -0.041
  SRB: -0.053
